The nature of data set [1]: Inhibition of Paracentrotus lividus embryo division.
The nature of data set [2]: Inhibition of Paracentrotus lividus embryo division at 250 ug/mL.

Structures are written as SMILES.

As for `CC[C@H](C)[C@H]1NC(=O)c2coc(n2)[C@H](C)NC(=O)[C@H]2COC(=N2)[C@@H](Cc2ccccc2)NC(=O)c2csc1n2` [RAOCYCLAMIDE A], the ED100 in data set [1] came out at 30 µg/mL.
With `CC[C@H](C)[C@H]1NC(=O)c2coc(n2)[C@H](C)NC(=O)[C@@H](CO)NC(=O)[C@@H](Cc2ccccc2)NC(=O)c2csc1n2` [RAOCYCLAMIDE B], the Activity entry in data set [2] was “Not Active”.

The record behind these values is ChEMBL document CHEMBL1158208, “Raocyclamides A and B, Novel Cyclic Hexapeptides Isolated from the Cyanobacterium Oscillatoria raoi” (J Nat Prod, 1996).
